Source: patent US7037644B1, “Means and methods for monitoring non-nucleoside reverse transcriptase inhibitor antiretroviral therapy and guiding therapeutic decisions in the treatment of HIV/AIDS” (ViroLogic, Inc., priority 1998, dated 2006)
Several values for one entry are separate records, joined by “and”; a condition that tells them apart may be missing. Equal entries are not always repeated. Entries after “also recorded” stand apart in the source; their conditions may differ.

Legend:
Format in all cases: cell-based, HIV-1
[1] = tested on: RTV-1060, patient 98-1060 (RT K101E, G190S); assay: Phenotypic susceptibility assay (patient RTV); details: patient RTV pool
Excerpt: (§1) The resistance test vectors containing a functional luciferase gene cassette were constructed and host cells were transfected with the resistance test vector DNA. The resistant test vectors contained patient-derived reverse transcriptase and protease sequences that were either susceptible or resistant to the antiretroviral agents, such as nucleoside reverse transcriptase inhibitors, non-nucleoside reverse transcriptase inhibitors and protease inhibitors. The resistance test vector viral particles produced by transfecting the resistance test vector DNA into host cells, either in the presence or absence of protease inhibitors, were used to infect target host cells grown either in the absence of NRTI or NNRTI or in the presence of increasing concentrations of the drug. The amount of luciferase activity produced in infected target host cells in the presence of drug was compared to the amount of luciferase produced in infected target host cells in the absence of drug. […] The IC50 values were determined by plotting percent drug inhibition vs. log10 drug concentration.
(§2) Host cells were seeded in 10-cm-diameter dishes and were transfected several days after plating with resistance test vector plasmid DNA and the envelope expression vector. […] HIV capsid protein (p24) levels in the harvested cell culture media were determined by an EIA method as described by the manufacturer (SIAC; Frederick, Md.). […] The inhibitory effect of the drug was determined using the following equation: % luciferase inhibition=1−(RLUluc [drug]÷RLUluc)×100 where RLUluc [drug] is the relative light unit of luciferase activity in infected cells in the presence of drug and RLUluc is the Relative Light Unit of luciferase activity in infected cells in the absence of drug. […]
A resistance test vector was constructed as described in Example 1 from a patient sample designated 98-644. […] RTV-644 and RTV-1060 were then tested in a phenotypic, assay to determine accurately and quantitatively the level of susceptibility to a panel of anti-retroviral drugs. […]

[2] = tested on: Y181I-RTV; assay: Phenotypic susceptibility assay (site directed mutant RTV); details: for loss of susceptibility (fold, IC50) vs wild type control RTV: Y181I alone; for change in susceptibility: mutation at codon 181 (isoleucine)
Excerpt: (§3) The resistance test vectors containing a functional luciferase gene cassette were constructed and host cells were transfected with the resistance test vector DNA. The resistant test vectors contained patient-derived reverse transcriptase and protease sequences that were either susceptible or resistant to the antiretroviral agents, such as nucleoside reverse transcriptase inhibitors, non-nucleoside reverse transcriptase inhibitors and protease inhibitors. The resistance test vector viral particles produced by transfecting the resistance test vector DNA into host cells, either in the presence or absence of protease inhibitors, were used to infect target host cells grown either in the absence of NRTI or NNRTI or in the presence of increasing concentrations of the drug. The amount of luciferase activity produced in infected target host cells in the presence of drug was compared to the amount of luciferase produced in infected target host cells in the absence of drug. Drug resistance was measured as the amount of drug required to inhibit by 50% the luciferase activity detected in the absence of drug (inhibitory concentration 50%, IC50). The IC50 values were determined by plotting percent drug inhibition vs. log10 drug concentration.
(§4) Host cells were seeded in 10-cm-diameter dishes and were transfected several days after plating with resistance test vector plasmid DNA and the envelope expression vector. Transfections were performed using a calcium-phosphate precipitation procedure. The cell culture media containing the DNA precipitate was replaced with fresh medium, from one to 24 hours, after transfection. Cell culture media containing resistance test vector viral particles was harvested one to four days after transfection and was passed through a […] filter before being stored at […]. HIV capsid protein (p24) levels in the harvested cell culture media were determined by an EIA method as described by the manufacturer (SIAC; Frederick, Md.). Before infection, target cells (293 and 293/T) were plated in cell culture media. Control infections were performed using cell culture media from mock transfections (no DNA) or transfections containing the resistance test vector plasmid DNA without the envelope expression plasmid. One to three or more days after infection the media was removed and cell lysis buffer (Promega) was added to each well. Cell lysates were assayed for luciferase activity (FIG. 3). The inhibitory effect of the drug was determined using the following equation: % luciferase inhibition=1−(RLUluc [drug]÷RLUluc)×100 where RLUluc [drug] is the relative light unit of luciferase activity in infected cells in the presence of drug and RLUluc is the Relative Light Unit of luciferase activity in infected cells in the absence of drug. IC50 values were obtained from the sigmoidal curves that were generated from the data by plotting the percent inhibition of luciferase activity vs. the log10 drug concentration. The drug inhibition curves are shown in (FIG. 3).
The Y181I mutationwas introduced into the resistance test vector using the mega-primer method for site-directed mutagenesis (Sakar and Sommar, Ibid). A resistance test vector containing the Y181I mutation (Y181I-RTV) was then tested using the phenotypic assay described earlier and the results were compared to those determined using a genetically defined resistance test vector that was wild type at position 181. We determined the pattern of phenotypic susceptibility to the NNRTIs, delavirdine, nevirapine and efavirenz, in the Y181I-RTV.

[3] = tested on: Y188C-RTV; assay: as above; details: Y188C alone
Excerpt: as §1, §2
The Y188C mutation was introduced into the resistance test vector using the mega-primer method for site-directed mutagenesis (Sakar and Sommar, Ibid.). […] We determined the pattern of phenotypic susceptibility to the NNRTIs., delavirdine, nevirapine and efavirenz, in the Y188C-RTV.

[4] = tested on: Y181C-RTV; assay: as above; details: for change in susceptibility: Y181C, FIG. 5
Excerpt: as §1, §2
The Y181C and A98G mutations were introduced alone and in combination into resistance test vectors using the mega-primer method for site-directed mutagenesis (Sakar and Sommar, Ibid.). […] We determined the pattern of phenotypic susceptibility to the NNRTIs, delavirdine, neviraphine and efavirenz, in the three vectors. […]

[5] = tested on: Y181C-A98G-RTV; assay: as above; details: for loss of susceptibility (fold, IC50) vs wild type control RTV: Y181C and A98G; for change in susceptibility: mutations at codons 181 and 98
Excerpt: as §3, §4
The Y181C and A98G mutations were introduced alone and in combination into resistance test vectors using the mega-primer method for site-directed mutagenesis (Sakar and Sommar, Ibid.). Resistance test vectors containing the Y181C mutation (Y181C-RTV) and the A98G mutation (A98G-RTV) and both mutations (Y181C-A98G-RTV) were then tested using the phenotypic assay described earlier and the results were compared to those determined using a genetically defined resistance test vector that was wild type at position 181 and 98. We determined the pattern of phenotypic susceptibility to the NNRTIs, delavirdine, neviraphine and efavirenz, in the three vectors.

[6] = tested on: K101E-G190A-RTV; assay: as above; details: for change in susceptibility (fold, IC50) vs wild type control RTV: K101E and G190A; for change in susceptibility: mutations at codons 101 and 190 (190A)
Excerpt: as §3, §4
(§5) The K101E, K103N and G190A mutations were introduced alone and in combination into resistance test vectors using the mega-primer method for site-directed mutagenesis (Sakar and Sommar, Ibid.).

[7] = tested on: K103N-G190A-RTV; assay: as above; details: for loss of susceptibility (fold, IC50) vs wild type control RTV: K103N and G190A; for change in susceptibility: mutations at codons 103 and 190
Excerpt: as §3, §4, §5

[8] = tested on: L100I-K103N-Y188L-RTV; assay: as above; details: mutations at 103 and 100 and 188
Excerpt: as §3, §4
The mutations Y188L, L100I and K103N were introduced alone and in combinationn into resistance test vectors using the mega-primer method for site-directed mutagenesis (Sakar and Sommar, Ibid.).

Row | Structure (SMILES) | decrease in susceptibility (fold, IC50) [1] | loss of susceptibility (fold, IC50) vs wild type control RTV [2] | change in susceptibility [2] | loss of susceptibility (fold, IC50) vs wild type control RTV [3] | change in susceptibility [4] | loss of susceptibility (fold, IC50) vs wild type control RTV [5] | change in susceptibility [5] | change in susceptibility (fold, IC50) vs wild type control RTV [6] | change in susceptibility [6] | loss of susceptibility (fold, IC50) vs wild type control RTV [7] | change in susceptibility [7] | change in susceptibility [8] | loss of susceptibility (fold, IC50) vs wild type control RTV ([4]; Y181C alone)
1 | CC(C)Nc1cccnc1N1CCN(C(=O)c2cc3cc(NS(C)(=O)=O)ccc3[nH]2)CC1 [delavirdine] | 1.5 fold | 20 fold | moderate decrease | 3 fold | resistance | 240 fold | significant decrease | 2 fold | slight loss of susceptibility; also recorded: no change | 40 fold | slight loss of susceptibility; also recorded: moderate decrease | substantial decrease | –
2 | O=C1Nc2ccc(Cl)cc2[C@@](C#CC2CC2)(C(F)(F)F)O1 [efavirenz] | 900 fold | 1.4 fold | no change | 20 fold | – | 7 fold | substantial decrease; also recorded: slight decrease | 120 fold | significant decrease | 215 fold | significant decrease | substantial decrease | 3 fold and 4 fold
3 | Cc1ccnc2c1NC(=O)c1cccnc1N2C1CC1 [nevirapine] | greater than 800 fold | 740 fold | significant decrease | 30 fold | resistance | greater than 800 fold | substantial decrease | greater than 800 fold | substantial decrease | greater than 800 fold | substantial decrease | substantial decrease | –
